# Measured values from ChEMBL document CHEMBL1201862, “PubChem BioAssay data set” (2004).
# The source made the active and inactive calls.
# Assays:
# Cytochrome P450 2C19 = Cytochrome P450 2C19 (Homo sapiens, UniProt P33261); test: qHTS Assay for Inhibitors and Substrates of Cytochrome P450 2C19. [Related pubchem assays: 410 ]; assay type: ADME; details: read-out: Potency
# Cytochrome P450 2D6 = Cytochrome P450 2D6 (Homo sapiens, UniProt P10635); test: qHTS Assay for Inhibitors and Substrates of Cytochrome P450 2D6. [Related pubchem assays: 410 ]; assay type: ADME; details: read-out: Potency
# [1] = NIH-3T3 fibroblast cytotoxicity, dose response, cytotoxicity control, cell-based, fluorescence, Alamar Blue, secondary assay (AID 2327); assay type: functional;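 also: NIH-3T3 mouse fibroblasts cultured with fluconazole at 8 µg/mL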
# HEK293 [2] = test: NOD1 signaling inhibitors, primary screen, cell-based, luminescence, uHTS (AID 1578); assay type: functional; details: Homo sapiens
# [3] = biological target: Neuropeptide Y receptor type 2 (Homo sapiens, UniProt P49146); test: NPY-Y2 antagonist potency, selectivity check, dose response, counter-screen for NPY-Y1 antagonist project, cell-based (AID 1278); assay type: functional
# HEK293 [4] = test: cells; assay type: functional, cell-based; details: Homo sapiens
# HEK293 [5] = test: cells; assay type: functional, cell-based; details: Homo sapiens; remark: listed apart in the source
# [6] = biological target: Nucleotide-binding oligomerization domain-containing protein 2 (Homo sapiens, UniProt Q9HC29); test: NOD2 signaling inhibitors, cell-based, luminescence, uHTS, HEK293 (AID 1566); assay type: functional
# HEK293 [7] = test: NOD2 signaling inhibitors in MDP-stimulated cells, cell-based, uHTS, luminescence (AID 2001); assay type: functional; details: Homo sapiens
# [8] = biological target: Neuropeptide Y receptor type 1 (Homo sapiens, UniProt P25929); test: NPY-Y1 receptor antagonist potency, dose response, cell-based (AID 1277); assay type: functional
# HEK293 [9] = test: cells; assay type: functional, cell-based; details: Homo sapiens; remark: listed apart in the source
# [10] = HIV-1 Env-mediated cell fusion inhibitors, dose response, CCR5-tropic Env (AID 2279); assay type: functional
# [11] = test system: Streptococcus sp. 'group A'; test: growth inhibition of control SK(-) GAS strain, dose response, counter-screen for streptokinase expression inhibitor project, luminescence, kanamycin, BacTiterGlo, confirmation (AID 1900); assay type: functional, organism-based
# Streptokinase A = biological target: T1, Streptokinase A (Streptococcus pyogenes serotype M1, UniProt P10520); test: S. pyogenes streptokinase expression inhibitors, potency, dose response, plasminogen activation absorbance, OD405 (AID 1914); assay type: functional, Streptococcus pyogenes M1 GAS;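 also: secreted streptokinase activity via plasminogen activation per viability signal from cell pellet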
# T1 sequence (P10520 whole entry): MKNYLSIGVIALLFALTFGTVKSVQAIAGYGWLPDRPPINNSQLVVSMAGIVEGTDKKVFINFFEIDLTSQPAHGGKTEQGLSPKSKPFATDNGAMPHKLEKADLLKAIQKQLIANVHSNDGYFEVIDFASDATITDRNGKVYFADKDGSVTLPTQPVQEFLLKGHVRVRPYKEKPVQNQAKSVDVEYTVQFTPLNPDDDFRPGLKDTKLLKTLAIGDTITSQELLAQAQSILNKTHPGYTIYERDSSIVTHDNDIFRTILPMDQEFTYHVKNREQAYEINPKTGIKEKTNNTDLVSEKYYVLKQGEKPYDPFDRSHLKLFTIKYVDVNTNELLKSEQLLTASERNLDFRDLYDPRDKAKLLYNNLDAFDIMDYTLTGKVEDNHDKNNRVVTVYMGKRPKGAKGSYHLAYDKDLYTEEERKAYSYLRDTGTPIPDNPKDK
# [12] = enhancers of respiration in Yfh1-depleted yeast, dose response, Friedreich's ataxia, plus single-dose screen (AID 1465); assay type: functional;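 also: yeast depleted of Yfh1p frataxin homolog grown on glycerol needing respiration; WST-1 tetrazolium dye reduction as measure of cellular dehydrogenase metabolic activity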
# Streptococcus = test: Group A Streptococcus viability loss, dose response, counter-screen for streptokinase expression inhibitor project, luminescence, BacTiterGlo (AID 1915); assay type: functional, organism-based;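 also: potency for reduction of bacterial viability or growth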
# [13] = biological target: T2, Replicative DNA helicase DnaB (Mycobacterium tuberculosis, UniProt P9WMR3); test: DnaB intein splicing inhibitors, dose response, biochemical, cell-free fluorescence (AID 449749); assay type: functional
# T2 sequence (P9WMR3 whole entry): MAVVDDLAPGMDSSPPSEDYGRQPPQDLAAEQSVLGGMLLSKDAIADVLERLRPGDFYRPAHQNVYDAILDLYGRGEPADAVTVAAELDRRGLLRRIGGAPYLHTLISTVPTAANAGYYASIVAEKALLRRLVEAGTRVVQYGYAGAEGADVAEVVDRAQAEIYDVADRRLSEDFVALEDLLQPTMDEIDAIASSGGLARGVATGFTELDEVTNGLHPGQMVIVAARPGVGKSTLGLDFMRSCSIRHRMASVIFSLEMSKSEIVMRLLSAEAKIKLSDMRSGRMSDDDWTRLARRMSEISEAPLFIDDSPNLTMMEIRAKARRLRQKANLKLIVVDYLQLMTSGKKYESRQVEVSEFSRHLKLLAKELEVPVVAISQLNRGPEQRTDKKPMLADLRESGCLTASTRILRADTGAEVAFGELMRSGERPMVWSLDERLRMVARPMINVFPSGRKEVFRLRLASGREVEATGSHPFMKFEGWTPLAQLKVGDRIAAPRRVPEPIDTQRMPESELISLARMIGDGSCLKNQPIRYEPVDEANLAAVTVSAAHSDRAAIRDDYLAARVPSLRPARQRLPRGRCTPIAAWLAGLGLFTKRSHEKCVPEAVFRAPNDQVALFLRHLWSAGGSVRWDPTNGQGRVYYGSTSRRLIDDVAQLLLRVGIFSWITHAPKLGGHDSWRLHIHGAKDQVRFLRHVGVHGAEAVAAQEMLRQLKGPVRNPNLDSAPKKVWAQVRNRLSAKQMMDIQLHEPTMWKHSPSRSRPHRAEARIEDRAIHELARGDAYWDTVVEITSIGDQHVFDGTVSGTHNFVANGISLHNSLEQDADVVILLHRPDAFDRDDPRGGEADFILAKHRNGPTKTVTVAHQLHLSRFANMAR
# Protein RecA = biological target: T3, Protein RecA (Mycobacterium tuberculosis, UniProt P9WHJ3); test: Fluorescence Cell-Free Homogeneous Dose Retest to Identify Inhibitors of RecA-Intein Splicing Activity. [Related pubchem assays (depositor defined):AID2097, AID2223, AID489010, AID492950]; assay type: functional
# T3 sequence (P9WHJ3 whole entry): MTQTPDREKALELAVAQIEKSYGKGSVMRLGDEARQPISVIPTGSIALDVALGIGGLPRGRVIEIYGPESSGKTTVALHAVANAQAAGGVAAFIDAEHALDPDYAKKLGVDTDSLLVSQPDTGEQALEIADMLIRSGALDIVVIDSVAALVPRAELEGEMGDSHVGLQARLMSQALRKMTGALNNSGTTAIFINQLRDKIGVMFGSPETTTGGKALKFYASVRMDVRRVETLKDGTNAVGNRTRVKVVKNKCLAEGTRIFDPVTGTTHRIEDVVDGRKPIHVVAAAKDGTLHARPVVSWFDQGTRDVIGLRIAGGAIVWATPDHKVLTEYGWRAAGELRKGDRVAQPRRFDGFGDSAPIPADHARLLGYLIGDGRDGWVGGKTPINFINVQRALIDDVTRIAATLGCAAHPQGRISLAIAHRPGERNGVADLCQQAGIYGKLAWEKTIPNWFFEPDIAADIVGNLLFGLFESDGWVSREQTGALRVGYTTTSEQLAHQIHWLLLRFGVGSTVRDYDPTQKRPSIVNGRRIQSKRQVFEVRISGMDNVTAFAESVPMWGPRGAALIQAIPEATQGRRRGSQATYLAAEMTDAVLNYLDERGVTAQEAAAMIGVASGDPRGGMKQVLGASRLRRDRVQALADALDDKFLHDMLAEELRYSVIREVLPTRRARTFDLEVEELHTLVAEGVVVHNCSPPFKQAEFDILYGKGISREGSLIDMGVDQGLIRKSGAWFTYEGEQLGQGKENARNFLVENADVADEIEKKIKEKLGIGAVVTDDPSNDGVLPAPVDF
# [14] = biological target: Peroxisome proliferator-activated receptor gamma/Nuclear receptor coactivator 1 (Homo sapiens, UniProt P37231); test: (§1) TR-FRET dose response biochemical High Throughput Screening assay for agonists of the steroid receptor coactivator 1 (SRC-1) recruitment by the peroxisome proliferator-activated receptor gamma (PPAR gamma): non-selective agonists. [Related pubchem assays (depositor defined):AID1300, AID1808, AID504735, AID631]; assay type: protein assay
# [15] = biological target: Peroxisome proliferator-activated receptor gamma/Nuclear receptor coactivator 3 (Homo sapiens, UniProt P37231); test: as §1, with “3 (SRC-3)” for “1 (SRC-1)”, “assays: 1301 (Confirmation screen.), 1048 (Primary screen.)]” for “assays (depositor defined):AID1300, AID1808, AID504735, AID631]”; assay type: functional
# [16] = biological target: T4, Mannose-6-phosphate isomerase (Homo sapiens, UniProt P34949); test: inhibitors of human PMI, primary screen, biochemical, fluorescence intensity, coupled assay (AID 1209)
# T4 sequence (P34949 whole entry): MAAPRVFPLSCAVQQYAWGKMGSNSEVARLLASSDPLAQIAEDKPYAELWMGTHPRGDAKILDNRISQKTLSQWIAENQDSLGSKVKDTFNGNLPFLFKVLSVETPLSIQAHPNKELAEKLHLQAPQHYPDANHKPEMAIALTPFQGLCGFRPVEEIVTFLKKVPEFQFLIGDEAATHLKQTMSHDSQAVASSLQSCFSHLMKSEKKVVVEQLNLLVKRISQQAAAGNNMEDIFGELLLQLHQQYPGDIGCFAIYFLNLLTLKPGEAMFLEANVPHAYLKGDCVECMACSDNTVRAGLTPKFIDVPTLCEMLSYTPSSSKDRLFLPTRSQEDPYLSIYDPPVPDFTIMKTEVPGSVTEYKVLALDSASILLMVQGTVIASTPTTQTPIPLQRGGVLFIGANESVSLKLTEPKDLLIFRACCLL
# [17] = biological target: Peroxisome proliferator-activated receptor gamma/Nuclear receptor coactivator 2 (Homo sapiens, UniProt P37231); test: TR-FRET dose response biochemical High Throughput Screening assay for agonists of the steroid receptor coactivator 2 (SRC-2) recruitment by the peroxisome proliferator-activated receptor gamma (PPAR gamma): non-selective agonists. [Related pubchem assays: 1297, 1032 ]; assay type: functional
# [18] = biological target: T4, Mannose-6-phosphate isomerase; test: human PMI inhibitors, high substrate, primary screen, biochemical, fluorescence intensity, high mannose 6-phosphate (AID 1220)
# [19] = biological target: Glucose-6-phosphate 1-dehydrogenase (Homo sapiens, UniProt P11413); test: human G6PD enzyme inhibitors, dose response, selectivity assay for P. falciparum G6PD inhibitor project, biochemical, fluorescence (AID 504792); assay type: functional
# Chain of Glucose-6-phosphate 1-dehydrogenase (P11413 whole entry): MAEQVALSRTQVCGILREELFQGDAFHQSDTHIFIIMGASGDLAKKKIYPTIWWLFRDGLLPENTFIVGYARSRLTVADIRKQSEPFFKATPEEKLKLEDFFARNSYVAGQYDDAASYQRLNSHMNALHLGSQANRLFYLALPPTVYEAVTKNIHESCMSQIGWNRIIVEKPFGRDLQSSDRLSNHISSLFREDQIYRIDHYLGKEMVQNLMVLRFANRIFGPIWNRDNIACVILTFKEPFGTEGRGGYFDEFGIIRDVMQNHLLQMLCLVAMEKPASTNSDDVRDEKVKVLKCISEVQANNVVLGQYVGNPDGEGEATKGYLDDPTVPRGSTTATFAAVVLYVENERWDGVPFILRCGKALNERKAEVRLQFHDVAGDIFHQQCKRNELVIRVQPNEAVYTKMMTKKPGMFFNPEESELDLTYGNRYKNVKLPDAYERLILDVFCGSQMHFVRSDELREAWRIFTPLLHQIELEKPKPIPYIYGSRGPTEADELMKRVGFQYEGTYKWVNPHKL
# Chain of Cytochrome P450 2C19 (P33261 whole entry): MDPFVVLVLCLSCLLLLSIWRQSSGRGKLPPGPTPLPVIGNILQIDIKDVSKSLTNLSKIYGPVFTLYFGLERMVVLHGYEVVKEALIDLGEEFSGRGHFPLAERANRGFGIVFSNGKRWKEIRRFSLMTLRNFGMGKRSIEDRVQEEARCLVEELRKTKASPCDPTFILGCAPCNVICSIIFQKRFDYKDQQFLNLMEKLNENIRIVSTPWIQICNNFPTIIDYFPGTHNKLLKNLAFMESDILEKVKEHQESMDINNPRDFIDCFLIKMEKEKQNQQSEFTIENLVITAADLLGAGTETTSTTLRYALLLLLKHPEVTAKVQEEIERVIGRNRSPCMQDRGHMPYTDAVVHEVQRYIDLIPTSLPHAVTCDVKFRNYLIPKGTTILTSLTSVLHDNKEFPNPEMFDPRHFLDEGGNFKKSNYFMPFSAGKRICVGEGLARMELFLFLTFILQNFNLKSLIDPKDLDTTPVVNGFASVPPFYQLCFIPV
# Chain of Neuropeptide Y receptor type 2 (P49146 whole entry): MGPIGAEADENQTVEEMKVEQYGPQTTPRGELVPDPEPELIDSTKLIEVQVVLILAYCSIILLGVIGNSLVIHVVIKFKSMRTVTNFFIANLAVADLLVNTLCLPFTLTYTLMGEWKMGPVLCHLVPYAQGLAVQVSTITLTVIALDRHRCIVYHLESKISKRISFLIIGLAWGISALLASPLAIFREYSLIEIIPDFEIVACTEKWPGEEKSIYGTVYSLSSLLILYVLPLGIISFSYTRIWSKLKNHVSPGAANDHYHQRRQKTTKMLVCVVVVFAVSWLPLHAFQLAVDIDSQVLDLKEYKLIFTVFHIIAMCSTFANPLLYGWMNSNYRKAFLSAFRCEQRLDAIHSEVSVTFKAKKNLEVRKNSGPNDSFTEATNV
# Chain of Neuropeptide Y receptor type 1 (P25929 whole entry): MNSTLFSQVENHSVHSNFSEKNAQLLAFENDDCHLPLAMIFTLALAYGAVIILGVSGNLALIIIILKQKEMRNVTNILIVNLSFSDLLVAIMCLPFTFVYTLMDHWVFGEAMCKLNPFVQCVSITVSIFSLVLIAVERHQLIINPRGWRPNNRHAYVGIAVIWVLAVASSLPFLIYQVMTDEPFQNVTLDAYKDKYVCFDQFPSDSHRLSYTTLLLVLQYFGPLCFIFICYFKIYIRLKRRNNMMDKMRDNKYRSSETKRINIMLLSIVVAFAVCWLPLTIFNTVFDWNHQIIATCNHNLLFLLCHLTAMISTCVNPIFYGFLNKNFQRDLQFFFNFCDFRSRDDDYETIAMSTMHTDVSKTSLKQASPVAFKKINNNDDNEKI
# Chain of Cytochrome P450 2D6 (P10635 whole entry): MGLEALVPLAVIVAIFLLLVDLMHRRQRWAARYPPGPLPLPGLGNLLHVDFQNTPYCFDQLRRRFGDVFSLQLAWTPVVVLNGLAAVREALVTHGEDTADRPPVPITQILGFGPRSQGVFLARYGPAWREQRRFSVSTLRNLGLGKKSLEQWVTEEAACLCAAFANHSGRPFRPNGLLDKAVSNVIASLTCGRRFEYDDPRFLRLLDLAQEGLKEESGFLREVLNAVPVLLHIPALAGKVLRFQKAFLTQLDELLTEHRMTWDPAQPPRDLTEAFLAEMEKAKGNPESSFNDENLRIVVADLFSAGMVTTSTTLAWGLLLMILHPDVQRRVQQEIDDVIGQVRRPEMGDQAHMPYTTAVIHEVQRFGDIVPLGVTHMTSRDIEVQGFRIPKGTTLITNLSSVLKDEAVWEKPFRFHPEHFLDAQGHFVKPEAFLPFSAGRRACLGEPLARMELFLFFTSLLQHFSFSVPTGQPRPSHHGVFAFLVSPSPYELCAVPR
# Chain of Peroxisome proliferator-activated receptor gamma/Nuclear receptor coactivator 3 (P37231 whole entry): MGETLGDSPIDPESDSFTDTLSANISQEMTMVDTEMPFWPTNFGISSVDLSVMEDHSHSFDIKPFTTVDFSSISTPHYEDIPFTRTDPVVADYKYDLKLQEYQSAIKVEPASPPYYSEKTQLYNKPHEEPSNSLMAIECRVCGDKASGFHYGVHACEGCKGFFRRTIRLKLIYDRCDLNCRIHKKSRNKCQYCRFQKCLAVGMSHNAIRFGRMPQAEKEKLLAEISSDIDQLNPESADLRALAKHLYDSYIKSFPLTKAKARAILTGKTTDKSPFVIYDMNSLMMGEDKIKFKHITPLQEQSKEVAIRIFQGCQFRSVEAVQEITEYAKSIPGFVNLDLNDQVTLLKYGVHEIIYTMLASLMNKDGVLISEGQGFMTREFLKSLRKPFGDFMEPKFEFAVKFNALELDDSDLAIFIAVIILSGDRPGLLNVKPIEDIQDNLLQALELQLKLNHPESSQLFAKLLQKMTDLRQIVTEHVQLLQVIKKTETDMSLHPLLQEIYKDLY
# Chain of Peroxisome proliferator-activated receptor gamma/Nuclear receptor coactivator 3 (Q9Y6Q9 whole entry, further chain): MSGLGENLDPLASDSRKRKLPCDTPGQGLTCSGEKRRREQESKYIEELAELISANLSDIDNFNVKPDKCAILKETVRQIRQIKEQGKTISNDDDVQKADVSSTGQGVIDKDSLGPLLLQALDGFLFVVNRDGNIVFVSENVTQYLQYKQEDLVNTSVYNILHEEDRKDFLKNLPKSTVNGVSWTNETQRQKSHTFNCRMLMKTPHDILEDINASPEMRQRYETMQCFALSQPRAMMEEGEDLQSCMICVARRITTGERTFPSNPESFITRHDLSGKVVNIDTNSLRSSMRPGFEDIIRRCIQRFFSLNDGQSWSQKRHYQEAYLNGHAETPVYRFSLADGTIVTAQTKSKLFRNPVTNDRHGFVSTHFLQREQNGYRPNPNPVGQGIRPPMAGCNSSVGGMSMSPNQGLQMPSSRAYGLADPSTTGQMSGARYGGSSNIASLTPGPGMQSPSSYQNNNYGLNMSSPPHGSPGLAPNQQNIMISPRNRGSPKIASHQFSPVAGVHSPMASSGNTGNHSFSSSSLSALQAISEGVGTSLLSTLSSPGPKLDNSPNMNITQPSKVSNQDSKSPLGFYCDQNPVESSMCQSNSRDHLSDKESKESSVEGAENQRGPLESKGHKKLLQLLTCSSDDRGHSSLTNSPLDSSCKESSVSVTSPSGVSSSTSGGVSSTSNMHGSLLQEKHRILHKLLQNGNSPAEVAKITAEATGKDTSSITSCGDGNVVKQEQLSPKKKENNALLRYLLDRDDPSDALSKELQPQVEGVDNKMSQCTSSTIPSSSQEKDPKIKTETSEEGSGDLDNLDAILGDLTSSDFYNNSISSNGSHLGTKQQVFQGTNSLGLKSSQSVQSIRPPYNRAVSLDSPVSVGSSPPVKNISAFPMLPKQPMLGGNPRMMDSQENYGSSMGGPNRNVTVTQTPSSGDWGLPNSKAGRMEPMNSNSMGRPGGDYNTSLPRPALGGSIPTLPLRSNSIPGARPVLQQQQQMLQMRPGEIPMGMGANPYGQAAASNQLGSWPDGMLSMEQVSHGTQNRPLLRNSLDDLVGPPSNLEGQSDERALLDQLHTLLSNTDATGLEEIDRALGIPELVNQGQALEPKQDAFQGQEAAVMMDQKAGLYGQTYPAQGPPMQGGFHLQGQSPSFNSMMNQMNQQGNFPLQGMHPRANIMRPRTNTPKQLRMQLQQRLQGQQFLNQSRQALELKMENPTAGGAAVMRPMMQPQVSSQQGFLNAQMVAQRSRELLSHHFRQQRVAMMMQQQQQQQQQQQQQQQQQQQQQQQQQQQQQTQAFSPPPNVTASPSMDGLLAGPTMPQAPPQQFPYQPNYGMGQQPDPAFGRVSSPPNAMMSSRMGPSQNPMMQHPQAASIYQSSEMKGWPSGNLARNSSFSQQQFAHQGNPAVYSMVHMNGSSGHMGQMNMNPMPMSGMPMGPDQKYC
structure (smiles),measurement,setting,value
C[C@@H](C(=O)O)c1ccc(N2Cc3ccccc3C2=O)cc1 [(R)-INDOPROFEN],AC50,Cytochrome P450 2C19,10 µM (inconclusive)
same,AC50,Cytochrome P450 2D6,7.94 µM (inconclusive)
CC1(C)CC(N2CCCCCC2)=CC(=[N+]2CCCC2)C1,EC50,[1],> 150 µM (inactive)
same,EC50,HEK293 [2],4.99 µM (active)
same,IC50,[3],> 35 µM (not active)
same,IC50,HEK293 [4],8.01 µM (active)
same,IC50,HEK293 [5],> 20 µM (inactive)
same,EC50,[6],17.5 µM (active)
same,IC50,HEK293 [7],16.4 µM (inactive)
same,IC50,[8],> 35 µM (not active)
same,IC50,HEK293 [9],> 20 µM (inactive)
COc1ccc(S(=O)(=O)Nc2ccccc2C(=O)Nc2nc(-c3ccc(F)cc3)cs2)cc1OC,IC50,[10],4.41 µM (active)
N#C/C(=N\Nc1ccc(S(=O)(=O)N2CCc3ccccc32)cc1)C(N)=S,EC50,[11],14.5 µM (active)
same,EC50,Streptokinase A,> 150 µM (not active)
same,EC50,[12],> 100 µM (active)
same,EC50,Streptococcus,40 µM (active)
same,AC50,[13],2.32 µM (active)
same,EC50,Protein RecA,31.7 µM (active)
Cc1cccc(-n2c(=S)[nH]c3sc4c(c3c2=O)CCc2ccccc2-4)c1,EC50,[14],> 79.4 µM (inactive)
same,EC50,[15],> 79.4 µM (not active)
same,IC50,[16],36.3 µM (active)
same,EC50,[17],> 79.4 µM (not active)
same,IC50,[18],> 50 µM (not active)
same,IC50,[19],> 80 µM (inactive)
